In assay [1] the target is T1, BSA (Bos taurus, UniProt P02769).
T1 construct: gene ALB
Kind of assay: UV-vis absorption spectra (Soret shift of complex). Format: binding. Particulars: PBS, 37 °C, 15 min; hemin in excess over BSA.

Assay [2] deals with T2, Cig1 (Cryptococcus neoformans, UniProt J9VUB8).
T2 construct: gene CNAG_01653
The note with it: PBS, 25 °C; hemin from DMSO stock.

T1 sequence (P02769 25-607): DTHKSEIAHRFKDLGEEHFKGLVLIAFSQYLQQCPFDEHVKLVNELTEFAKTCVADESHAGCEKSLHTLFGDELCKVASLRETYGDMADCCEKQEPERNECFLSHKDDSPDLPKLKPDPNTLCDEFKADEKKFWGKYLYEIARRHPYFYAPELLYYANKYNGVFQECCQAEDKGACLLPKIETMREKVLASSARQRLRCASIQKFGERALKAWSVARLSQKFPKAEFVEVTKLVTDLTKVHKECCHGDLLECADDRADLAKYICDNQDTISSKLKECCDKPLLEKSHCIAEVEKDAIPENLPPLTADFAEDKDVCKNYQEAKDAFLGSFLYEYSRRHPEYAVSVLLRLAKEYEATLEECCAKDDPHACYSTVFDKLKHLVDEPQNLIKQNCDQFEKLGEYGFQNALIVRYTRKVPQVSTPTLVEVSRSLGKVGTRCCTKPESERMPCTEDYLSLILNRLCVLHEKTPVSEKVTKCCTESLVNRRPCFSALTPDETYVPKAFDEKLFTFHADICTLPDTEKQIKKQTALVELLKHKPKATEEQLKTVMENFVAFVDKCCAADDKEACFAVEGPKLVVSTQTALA
T2 sequence (J9VUB8 entry or part of it): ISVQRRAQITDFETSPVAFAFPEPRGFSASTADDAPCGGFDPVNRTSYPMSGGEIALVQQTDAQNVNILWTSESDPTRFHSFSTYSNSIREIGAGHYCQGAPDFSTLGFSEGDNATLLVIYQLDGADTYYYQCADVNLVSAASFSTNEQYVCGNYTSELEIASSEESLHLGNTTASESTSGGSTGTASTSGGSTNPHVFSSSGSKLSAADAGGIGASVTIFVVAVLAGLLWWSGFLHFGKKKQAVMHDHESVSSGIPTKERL

`C=CC1=C(C)C2=Cc3c(C=C)c(C)c4[n]3[Fe]([Cl])[n]3c(c(C)c(CCC(=O)O)c3=CC3=NC(=C4)C(C)=C3CCC(=O)O)=CC1=N2` [hemin]: the “UV-vis absorption spectra (Soret shift of complex)” value in assay [1] was “Hemin@BSA exhibited a red shift in its absorption peak”. The Kd in assay [2] is 9.81×10^‒7 mol/l.
